Tested on: animals with collagen-induced arthritis
Experiment: Collagen-induced arthritis in mice: treatment after disease onset, assessed by clinical score and paw swelling
Assay type: in vivo, male DBA/1 mice
Procedure: Arthritis was induced in male DBA/1 mice (8–10 weeks old) by intradermal injection of bovine type II collagen, purified in-house at the Kennedy Institute of Rheumatology as previously described (Miller, E. J. et al. (1972)). Collagen was administered in complete Freund's adjuvant (Difco, Detroit, Michigan). Onset of arthritis was variable, occurring from Day 14 up to Day 40 after immunization. Arthritis onset was considered to occur on the day that swelling and/or erythema were observed. Clinical score is a composite of disease severity and the number of limbs affected, and was monitored daily from onset of disease and used as an assessment of disease progress. The scoring used was: 0, Normal; 1, slight swelling with erythema; 2, pronounced swelling; 3, joint rigidity. In addition, the extent of paw swelling reflects the degree of edema in affected limbs. Arthritis increased progressively over 10 days as reflected by both clinical score and paw swelling.
Anti-TNF antibody was used in these experiments was as described by Marinova-Mutafchieva, L. et al. (2000). NB1011 was administered daily by intraperitoneal administration at 2.5 mg total dose per day. Anti-TNF antibody was compared with NB1011 because, at present, antiTNF antibody is the optimal single agent for treatment of collagen induced arthritis (Marinova-Mutafchieva, L. et al. (2000)).
Following immunization with collagen, mice were maintained until a significant clinical score for disease progression was achieved (between 2.5 and 3.5, see FIG. 1 and Methods). Mice were then treated with control saline injections, NB1011, or with anti-TNF antibody as a positive control. […] Paw swelling is an alternative measure of CIA disease severity.

## 5-(2-Bromovinyl)-2′-deoxyuridine phenyl N-methoxy-L-alaninyl phosphoramidate [NB1011]
FIG. 1, NB1011 compared with anti-TNF positive control
  difference between NB1011 and anti-TNF groups with regard to clinical score: no significant difference
FIG. 1, vs saline-treated control group, p<0.05, NB1011 intraperitoneal daily, 2.5 mg total dose per day, treatment started at clinical score between 2.5 and 3.5
  disease suppression by clinical score: significant disease suppression
FIG. 2, NB1011 compared with anti-TNF positive control
  difference between NB1011 and anti-TNF groups with regard to paw swelling: no significant difference
FIG. 2, qualitative remark
  suppression of swelling relative to anti-TNF group: may have been less dramatic
FIG. 2, vs saline-treated control group, p<0.05, NB1011 intraperitoneal daily, 2.5 mg total dose per day
  disease suppression by paw swelling: significant disease suppression
Comparison with literature (Malfait 2000; Miotla 2000; Marinova-Mutafchieva 2000)
  activity by comparison with earlier reported work on other agents: superior to anti-angiogenesis agents, an anti-CD4 immunosuppressive agent, and cannabidiol

— patent US7138388B2, “Methods to treat autoimmune and inflammatory conditions” (Celmed Oncology (USA), Inc., priority 2001, dated 2006)
